Test results as given in patent publication US20110092558A1, “NOVEL MICROBIOCIDES” (SYNGENTA CROP PROTECTION, INC., priority 2008, published 2011).

Experiments:
[1] = test system: Erysiphe graminis f.sp. Tritici; assay: Action against Erysiphe graminis f.sp. tritici (wheat powdery mildew), wheat leaf segments, preventive; type: in vivo; conditions: Blumeria graminis, foliar, 168 h; wheat leaf segments sprayed with 0.02% active ingredient; assessed 7 days after inoculation; read-out: preventive fungicidal activity (inhibition)
Protocol: Action Against Erysiphe graminis f.sp. Tritici (Wheat Powdery Mildew) Wheat leaf segments are placed on agar in multiwell plates (24-well format) and sprayed with test solutions (0.02% active ingredient). After drying, the leaf disks are inoculated with a spore suspension of the fungus. After appropriate incubation the activity of a compound is assessed 7 days after inoculation as preventive fungicidal activity. Compounds 1.001, 1.004, 1.052, 1.069, 1.134, and 1.182 show good activity in this test (at least 50% inhibition).

Pyrenophora teres = assay: Action against Pyrenophora teres (net blotch) on barley leaf segments, preventive; type: in vivo; conditions: foliar, 96 h, barley leaf segments sprayed with 0.02% active ingredient, assessed 4 days after inoculation, read-out: preventive fungicidal activity (inhibition)
Protocol: Action Against Pyrenophora teres (Net Blotch) on Barley Barley leaf segments are placed on agar in multiwell plates (24-well format) and sprayed with test solutions (0.02% active ingredient). After drying, the leaf disks are inoculated with a spore suspension of the fungus. After appropriate incubation the activity of a compound is assessed 4 days after inoculation as preventive fungicidal activity. Compounds 1.001, 1.004, 1.052, 1.069, 1.134, 1.171, 1.182 and 1.197 show good activity in this test (at least 50% inhibition).

Botrytis cinerea = assay: Action against Botrytis cinerea - fungal growth assay; type: cell-based; conditions: 0.02% active ingredient, PDB nutrient broth, 24° C., measured photometrically after 3-4 days
Protocol: (§1) Action Against Botrytis cinerea—Fungal Growth Assay Conidia of the fungus from cryogenic storage are directly mixed into nutrient broth (PDB potato dextrose broth). After placing a (DMSO) solution of the test compounds (0.02% active ingredient) into a microtiter plate (96-well format) the nutrient broth containing the fungal spores is added. The test plates are incubated at 24° C. and the inhibition of growth is measured photometrically after 3-4 days. The activity of a compound is expressed as fungal growth inhibition. Compounds 1.001, 1.004, 1.052, 1.134, 1.182 and 1.197 show good activity in this test (at least 50% inhibition).

Mycosphaerella arachidis = assay: Action against Mycosphaerella arachidis (early leaf spot of groundnut) - fungal growth assay; type: cell-based; conditions: 0.02% active ingredient, PDB nutrient broth, 24° C., measured photometrically after 6-7 days
Protocol: as §1, with “Mycosphaerella arachidis (Early Leaf Spot of Groundnut Cercospora Arachidicola [Anamorph])—Fungal” for “Botrytis cinerea—Fungal”, “6-7” for “3-4”, “1.052, 1.069,” for “1.052,”, “1.134, 1.171,” for “1.134,”

Septoria tritici = assay: Action against Septoria tritici - fungal growth assay; type: cell-based; conditions: Zymoseptoria tritici; 0.02% active ingredient; PDB nutrient broth, 24° C.; determined photometrically after 72 hrs
Protocol: as §1, with “Septoria tritici—Fungal” for “Botrytis cinerea—Fungal”, “determined” for “measured”, “72 hrs.” for “3-4 days.”, “1.052, 1.069,” for “1.052,”, “1.134, 1.171,” for “1.134,”

Monographella nivalis = assay: Action against Monographella nivalis (snow mould) - fungal growth assay; type: cell-based; conditions: 0.02% active ingredient, PDB nutrient broth, 24° C., measured photometrically after 72 hrs
Protocol: as §1, with “Monographella nivalis (Anamorph: Fusarium nivale, Microdochium nivale; Snow Mould)—Fungal” for “Botrytis cinerea—Fungal”, “DMSO-solution” for “(DMSO) solution”, “72 hrs.” for “3-4 days. The activity of a compound is expressed as fungal growth inhibition.”, “1.052, 1.069,” for “1.052,”, “1.134, 1.171,” for “1.134,”

Puccinia recondita = assay: Curative action against Puccinia recondita (brown rust) on wheat leaf segments; type: in vivo; conditions: foliar, wheat leaf segments sprayed with 0.02% active ingredient one day after inoculation, assessed 8 days after inoculation, read-out: curative fungicidal activity (inhibition)
Protocol: Curative Action Against Puccinia recondita (Brown Rust) on Wheat Wheat leaf segments are placed on agar in multiwell plates (24-well format) and inoculated with a spore suspension of the fungus. One day after inoculation the leaf segments are sprayed with test solutions (0.02% active ingredient). After appropriate incubation the activity of a compound is assessed 8 days after inoculation as curative fungicidal activity. Compounds 1.004 and 1.052 show good activity in this test (at least 50% inhibition).

Leptosphaeria nodorum = assay: Action against Leptosphaeria nodorum (Septoria nodorum; glume blotch) on wheat leaf segments, preventive; type: in vivo; conditions: Parastagonospora nodorum, foliar, 96 h; wheat leaf segments sprayed with 0.02% active ingredient; assessed 4 days after inoculation; read-out: preventive fungicidal activity (inhibition)
Protocol: Action Against Leptosphaeria nodorum (Septoria nodorum; Glume Blotch) on Wheat Wheat leaf segments are placed on agar in multiwell plates (24-well format) and sprayed with test solutions (0.02% active ingredient). After drying, the leaf disks are inoculated with a spore suspension of the fungus. After appropriate incubation the activity of a compound is assessed 4 days after inoculation as preventive fungicidal activity. Compounds 1.001, 1.004, 1.069, 1.134, and 1.182 show good activity in this test (at least 50% inhibition).

Measured: inhibition at 0.02 % strength

CC(CCc1c(Cl)cc(Cl)cc1Cl)NC(=O)c1cn(C)nc1C(F)F (stereo not shown) [Compound 1.004, 3-difluoromethyl-1-methyl-1H-pyrazole-4-carboxylic acid [1-methyl-3-(2,4,6-trichloro-phenyl)-propyl]-amide]
≥ 50%: all assays above

CC(CCCc1c(Cl)cc(Cl)cc1Cl)NC(=O)c1cn(C)nc1C(F)F (stereo not shown) [Compound 1.069, 3-difluoromethyl-1-methyl-1H-pyrazole-4-carboxylic acid [1-methyl-4-(2,4,6-trichloro-phenyl)-butyl]-amide]
not listed: Botrytis cinerea | Puccinia recondita
≥ 50%: all other assays above

CC(COCc1c(Cl)cccc1Cl)NC(=O)c1cn(C)nc1C(F)F (stereo not shown) [Compound 1.197, 3-difluoromethyl-1-methyl-1H-pyrazole-4-carboxylic acid [2-(2,6-dichloro-benzyloxy)-1-methyl-ethyl]-amide]
≥ 50%: Pyrenophora teres | Botrytis cinerea | Mycosphaerella arachidis | Septoria tritici | Monographella nivalis
